Reference: patent EP3300733A1, “SUBSTANCE SELECTED AMONG IRINOTECAN, AN IRINOTECAN ACTIVE METABOLITE, 5-FLUORO-URACILE, A PHARMACEUTICAL SALT THEREOF AND A MIXTURE THEREOF, FOR USE IN THE TREATMENT OF FIBROSIS” (Centre Hospitalier Universitaire de Bordeaux, priority 2016, dated 2018)
Where two headings read alike, the source gives them in different places.

Assays:
[1] = system: diffuse cutaneous systemic sclerosis; details: cited from earlier work
[2] = system: dermal fibroblasts; assay: cytotoxicity on the fibroblasts (data not shown); format: cell-based, human
[3] = system: procollagen I; assay: effect of a combination of low SN38 and 5FU doses on procollagen I release (ELISA); format: cell-based, human; details: 5FU 1 µg/ml alone (condition B), 48h; patient SSC2, SSC3 or H2
Procedure: Dermal fibroblasts were plated in DMEM 10% FCS supplemented with 20µg/mL of vitamin C in 96-well plates. 24h before the experiment, medium was switched to DMEM 0% FCS supplemented with 20µg/mL of vitamin C. Cells were treated for 48h with SN38 (0.006 µg/mL), 5FU (1 µg/mL) or a combination (SN38 0.006 µg/mL and 5FU 1 µg/mL) in DMEM 0% FCS supplemented with 20µg/mL of vitamin C. Supernatants were collected to evaluate the procollagen I release level by ELISA kit (ref MK101, supplier Takara) according to manufacter's instructions. Triplicates were done. The level of procollagen I release was presented as fold change compared with the procollagen I release by the same non-treated fibroblasts arbitrary fixed at 100%.

[4] = system: COL1A1 mRNA; assay: mRNA expression of fibrosis genes in dermal fibroblasts (qPCR): COL1A1; format: cell-based; details: Homo sapiens, Fibroblast, read-out: average inhibition of COL1A1 mRNA levels
Procedure: (§1) Dermal fibroblasts were obtained from clinically affected skin of systemic sclerosis (SSC) patients and from healthy donors (H). The fibroblasts were grown in DMEM medium containing 2mM of L-glutamine supplemented with 10% foetal bovine serum (FCS) and penicillin/streptomycin antibiotics.
(§2) Dermal fibroblasts were plated in DMEM 10% FCS in 24-well plates. 24h before the experiment, medium was switched to DMEM 0% FCS. […] Supernatants were removed and plates were freezed at -80°c. Fibroblasts RNA from each well-plate were extracted with NucleoSpin® RNA Plus kit (Macherey-Nagel) according to manufacter's instructions. Triplicates were done and RNA from triplicates were pooled together. The quantity and quality of RNA were evaluated by capillary electrophoresis (Bioanalyzer 2100, Agilent).
(§3) RNA was used for cDNA synthesis using the Transcriptor Reverse Transcriptase kit (Roche). qPCR reactions were run on a Light Cycler (Roche Molecular Systems Inc.) according to manufacter's instructions. The relative gene expression levels of COL1A1, COL1A2, MMP1, TIMP1, CCL2 and ACTA2 were calculated using the ΔΔCt method. Target mRNA levels were normalized to GAPDH.
(§4) Expression of the genes in the different treated conditions was presented as fold change compared with the gene expression of the same non-treated fibroblasts arbitrary fixed at 100%.

[5] = system: CCL2 mRNA; assay: mRNA expression of fibrosis genes in dermal fibroblasts (qPCR): CCL2; format: cell-based; details: Homo sapiens, Fibroblast, 24h, SSc and healthy fibroblasts, vs non-treated, read-out: average inhibition of CCL2 mRNA levels
Procedure: as §1, §2, §3, §4

[6] = system: procollagen I; assay: release of procollagen I protein by dermal fibroblasts (ELISA), dose response; format: cell-based, human; details: 48h, both cell types (SSC and healthy fibroblasts), vs non-treated
Procedure: as §1
Dermal fibroblasts were plated in DMEM 10% FCS supplemented with 20µg/mL of vitamin C in 96-well plates. 24h before the experiment, medium was switched to DMEM 0% FCS supplemented with 20µg/mL of vitamin C. […] Supernatants were collected to evaluate the procollagen I release level by ELISA kit (ref MK101, supplier Takara) according to manufacter's instructions. Triplicates were done. The level of procollagen I release was presented as fold change compared with the procollagen I release by the same non-treated fibroblasts arbitrary fixed at 100%.

[7] = system: TIMP1 mRNA; assay: mRNA expression of fibrosis genes in dermal fibroblasts (qPCR): TIMP1; format: cell-based; details: Homo sapiens, Fibroblast, read-out: average inhibition of TIMP1 mRNA levels
Procedure: as §1, §2, §3, §4

[8] = system: MMP1 mRNA; assay: mRNA expression of fibrosis genes in dermal fibroblasts (qPCR): MMP1; format: cell-based; details: Homo sapiens, Fibroblast, read-out: average inhibition of MMP1 mRNA levels
Procedure: as §1, §2, §3, §4

[9] = system: COL1A2 mRNA; assay: mRNA expression of fibrosis genes in dermal fibroblasts (qPCR): COL1A2; format: cell-based; details: Homo sapiens, Fibroblast, read-out: average inhibition of COL1A2 mRNA levels
Procedure: as §1, §2, §3, §4

[10] = system: diffuse scleroderma; assay: clinical case: patient with diffuse scleroderma treated with chemotherapy; format: in vivo, human; details: methotrexate 7.5 mg to 10 mg per week for 5 years before admission
Description: A person was referred for fever and abdominal pain. Their medical history was mainly represented by a systemic scleroderma diagnosed 20 years before and with digestive, cutaneous and rheumatologic involvement. […] Blood test found anti topo-I antibodies to high level (141 IU/mL, normal range 0-29). […] The modified Rodnan score was 24/51.
Then, it was proposed to the patient 4 cycles of chemotherapy FOLFORINOX followed by rectal surgery.
The patient received 4 cycles of FOLFORINOX (oxaliplatine 85 mg/m^2, irinotecan 180 mg/m^2, 5-fluoro-uracil 400 mg/m^2 flash then 2400 mg/m^2 the following 46 hours). Cycles of chemotherapy were administered every 14 days on January 13 and 27, and February 11 and 25, 2014.
Then, the patient had surgery and according to post-surgical piece, it was realized 6 cycles of FOLFOX (folinic acid, oxaliplatine and 5-fluorouracil) with no new improvement during these last 6 cycles.

[11] = system: idiopathic pulmonary fibrosis; details: on one year, 72 week phase III trial; cited from earlier work
[12] = system: ACTA2 mRNA; assay: mRNA expression of fibrosis genes in dermal fibroblasts (qPCR): ACTA2; format: cell-based; details: Homo sapiens, Fibroblast, read-out: average inhibition of ACTA2 mRNA levels
Procedure: as §1, §2, §3, §4

[13] = control group (cyclophosphamide), share of patients
[14] = all the doses used in the procollagen I release test (irinotecan 0.006-40 µg/ml, SN38 0.00006-0.6 µg/ml, 5FU 0.3-80 µg/ml)
[15] = 5FU 384 µM (highest dose), 24h, SSc and healthy fibroblasts, vs non-treated
[16] = irinotecan 32 µM (highest dose), 24h, SSc and healthy fibroblasts, vs non-treated

## O=P1(N(CCCl)CCCl)NCCCO1 (stereo not shown) [cyclophosphamide]
[1]; control group (cyclophosphamide), at 2 years
  events, cumulative: 18.2%
[1]; control group (cyclophosphamide), at 4 years
  events, cumulative: 26%
[1]; control group (cyclophosphamide), during the first year, no treatment-related deaths
  events: 10.4%
[1]; [13]
  Grade 3 or 4 adverse events: 37.0%
  Viral infections: 1.3%
[1]; control group (cyclophosphamide, n = 77), median follow-up of 5.8 years, 23 deaths and 8 irreversible organ failures
  events (deaths and irreversible organ failures): 31

## O=c1[nH]cc(F)c(=O)[nH]1 [5FU, 5-Fluoro-1H,3H-pyrimidine-2,4-dione]
[2]; 38.4 µM and 384 µM
  cytotoxic on the fibroblasts: not cytotoxic
[2]; [14]
  cytotoxic on the fibroblasts: not cytotoxic
[3]
  procollagen I release: not observed
[4]; [15]
  inhibition at 384 µM: 17%
[5]; 5FU 384 µM (highest dose)
  inhibition at 384 µM: 31%
[6]; 80µg/mL
  release of procollagen I protein: significantly decreased
[7]; [15]
  inhibition at 384 µM: 15%
[8]; [15]
  inhibition at 384 µM: 37%
[9]; [15]
  inhibition at 384 µM: 12%

## CN(Cc1cnc2nc(N)nc(N)c2n1)c1ccc(C(=O)N[C@@H](CCC(=O)O)C(=O)O)cc1 [methotrexate]
[10]
  impact on scleroderma evolution: without substantial impact

## Cc1ccc(=O)n(-c2ccccc2)c1 [Pirfenidone]
[11]
  reduce decline in lung function (forced vital capacity, FCV): 4.4%

## CCc1c2c(nc3ccc(O)cc13)-c1cc3c(c(=O)n1C2)COC(=O)[C@]3(O)CC [SN38, 7-Ethyl-10-hydroxy-camptothecin]
[2]; 0.1 µM and 1 µM
  cytotoxic on the fibroblasts: not cytotoxic
[2]; [14]
  cytotoxic on the fibroblasts: not cytotoxic
[12]; 24 h
  inhibition at 1 µM: 55%
[4]; 24 h
  inhibition at 1 µM: 57.5%
[6]; 0.3 µg/mL
  release of procollagen I protein: significantly decreased
[6]; 0.6 µg/mL
  release of procollagen I protein: significantly decreased
[7]; 24 h
  inhibition at 1 µM: 22%
[8]; 24 h
  inhibition at 1 µM: 42%
[9]; 24 h
  inhibition at 1 µM: 52%

## CCc1c2c(nc3ccc(OC(=O)N4CCC(N5CCCCC5)CC4)cc13)-c1cc3c(c(=O)n1C2)COC(=O)[C@]3(O)CC [irinotecan, (S)-4,11-diethyl-3,4,12,14-tetrahydro-4-hydroxy-3,14-dioxo1H-pyrano[3',4':6,7]-indolizino[1,2-b]quinolin-9-yl-[1,4'bipiperidine]-1'-carboxylate]
[2]; 3.2 µM and 32 µM
  cytotoxic on the fibroblasts: not cytotoxic
[2]; [14]
  cytotoxic on the fibroblasts: not cytotoxic
[12]; [16]
  inhibition at 32 µM: 33%
[4]; [16]
  inhibition at 32 µM: 27%
[5]; irinotecan 32 µM (highest dose)
  inhibition at 32 µM: 19%
[6]; 40µg/mL
  release of procollagen I protein: significantly decreased
[8]; [16]
  inhibition at 32 µM: 32%
[9]; [16]
  inhibition at 32 µM: 22%
